Drawing on patent US12195482B1 (Arcus Biosciences, Inc., priority 2022, dated 2025), this text covers IC50 for 15 compounds.

Molecules are shown by their SMILES.

The IC50 is the concentration that inhibits the measured activity by half.

In one assay the target is T1, recombinant human MER (Homo sapiens, UniProt Q12866).
T1 construct: purchased Invitrogen
T1 sequence (Q12866 21-999): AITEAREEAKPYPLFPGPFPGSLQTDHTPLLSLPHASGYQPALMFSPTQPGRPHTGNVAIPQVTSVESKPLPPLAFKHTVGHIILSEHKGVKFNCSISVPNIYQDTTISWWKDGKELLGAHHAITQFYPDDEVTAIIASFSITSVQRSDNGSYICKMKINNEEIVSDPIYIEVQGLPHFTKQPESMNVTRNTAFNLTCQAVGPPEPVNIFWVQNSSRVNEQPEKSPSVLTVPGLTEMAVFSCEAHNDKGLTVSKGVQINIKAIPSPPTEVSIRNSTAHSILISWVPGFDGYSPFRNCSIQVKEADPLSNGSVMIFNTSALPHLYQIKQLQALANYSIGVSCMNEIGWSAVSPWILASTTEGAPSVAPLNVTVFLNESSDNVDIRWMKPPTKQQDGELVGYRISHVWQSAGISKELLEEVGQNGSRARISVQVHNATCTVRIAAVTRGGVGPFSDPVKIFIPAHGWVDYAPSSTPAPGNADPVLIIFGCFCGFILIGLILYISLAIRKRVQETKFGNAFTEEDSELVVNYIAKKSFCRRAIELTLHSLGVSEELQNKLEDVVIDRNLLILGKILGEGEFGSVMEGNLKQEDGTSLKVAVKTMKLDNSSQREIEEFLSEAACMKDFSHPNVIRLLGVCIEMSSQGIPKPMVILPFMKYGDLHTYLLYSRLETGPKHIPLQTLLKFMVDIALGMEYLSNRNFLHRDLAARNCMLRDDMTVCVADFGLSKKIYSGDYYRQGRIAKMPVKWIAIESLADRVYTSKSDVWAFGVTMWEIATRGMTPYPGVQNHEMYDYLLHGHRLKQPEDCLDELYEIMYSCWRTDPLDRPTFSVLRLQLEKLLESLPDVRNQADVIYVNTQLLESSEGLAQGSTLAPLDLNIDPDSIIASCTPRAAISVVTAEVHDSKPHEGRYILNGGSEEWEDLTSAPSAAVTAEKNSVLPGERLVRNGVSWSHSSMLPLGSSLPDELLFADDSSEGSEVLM
Put plainly: Biochemical potency, HTRF KinEASE-TK kinase assay. As to conditions: 1 nM MER, 700 μM ATP. In outline: (§1)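 Phosphorylation of a biotinylated tyrosine-kinase peptide (800 nM) by AXL (5 nM) or TYRO3/MER (1 nM) is measured at 700 µM ATP after 2 h at room temperature, following 1 h enzyme–compound preincubation. Signal is the time-resolved FRET ratio, converted to percent activity.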
(In general: In TR-FRET formats the signal depends on donor and acceptor labels being close together.)

The next assay has as its target T2, recombinant human TYRO3 (Homo sapiens, UniProt Q06418).
T2 construct: purchased Invitrogen
T2 sequence (Q06418 41-890): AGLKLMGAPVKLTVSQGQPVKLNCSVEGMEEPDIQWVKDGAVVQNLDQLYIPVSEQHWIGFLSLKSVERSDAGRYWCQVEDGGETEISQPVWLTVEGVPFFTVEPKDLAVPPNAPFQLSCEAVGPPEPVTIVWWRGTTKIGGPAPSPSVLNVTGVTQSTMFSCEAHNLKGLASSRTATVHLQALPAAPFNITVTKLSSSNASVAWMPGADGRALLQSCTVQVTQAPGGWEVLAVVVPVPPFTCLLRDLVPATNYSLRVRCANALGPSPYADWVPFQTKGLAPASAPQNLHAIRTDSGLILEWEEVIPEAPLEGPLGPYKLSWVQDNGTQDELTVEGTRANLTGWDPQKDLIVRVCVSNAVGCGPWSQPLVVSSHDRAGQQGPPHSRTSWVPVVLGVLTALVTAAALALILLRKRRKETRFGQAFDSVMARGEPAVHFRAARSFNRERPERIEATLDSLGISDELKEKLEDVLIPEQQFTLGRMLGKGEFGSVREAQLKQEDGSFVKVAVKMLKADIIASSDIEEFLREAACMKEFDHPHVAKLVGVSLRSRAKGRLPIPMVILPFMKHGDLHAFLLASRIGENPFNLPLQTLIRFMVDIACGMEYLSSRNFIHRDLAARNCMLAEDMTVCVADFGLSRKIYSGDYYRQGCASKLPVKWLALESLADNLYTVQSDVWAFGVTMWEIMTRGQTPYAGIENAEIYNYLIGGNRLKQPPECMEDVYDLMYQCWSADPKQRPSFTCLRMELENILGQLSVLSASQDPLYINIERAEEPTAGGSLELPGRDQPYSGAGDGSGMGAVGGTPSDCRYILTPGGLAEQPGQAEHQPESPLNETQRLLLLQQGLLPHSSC
Put plainly: Biochemical potency, HTRF KinEASE-TK kinase assay. To be noted: 1 nM TYRO3, 700 μM ATP. In outline:
as §1

As to `Cc1cnc(C)c(-c2ccc(-c3c[nH]c4ncc(-c5ccc6c(c5)CC[C@@H](N5C7COCC5C7)CC6)cc34)cc2)n1` [Example 53, 6-[(7S)-2-{3-[4-(3,6-Dimethylpyrazin-2-yl)phenyl]-1H-pyrrolo[2,3-b]pyridin-5-yl}-6,7,8,9-tetrahydro-5H-benzo[7]annulen-7-yl]-3-oxa-6-azabicyclo[3.1.1]heptane], the IC50 at recombinant human MER and on recombinant human TYRO3 was 0.1 to 1 µM each time.

As for `COc1cc(-c2c[nH]c3ncc(-c4ccc5c(c4)CC[C@@H](N4C6COCC4C6)CC5)cc23)ccc1-c1ccccn1` [Example 161, 6-[(7S)-2-{3-[3-Methoxy-4-(pyridin-2-yl)phenyl]-1H-pyrrolo[2,3-b]pyridin-5-yl}-6,7,8,9-tetrahydro-5H-benzo[7]annulen-7-yl]-3-oxa-6-azabicyclo[3.1.1]heptane], the concentration for half-maximal inhibition (IC50) on recombinant human MER and at recombinant human TYRO3 was 0.1 to 1 µM in each case.

For the compound `COc1cccc(-c2ccc(-c3n[nH]c4ncc(-c5ccc6c(c5)CC[C@@H](N5C7COCC5C7)CC6)cc34)cc2)n1` [Example 162, 6-[(7S)-2-{3-[4-(6-Methoxypyridin-2-yl)phenyl]-2H-pyrazolo[3,4-b]pyridin-5-yl}-6,7,8,9-tetrahydro-5H-benzo[7]annulen-7-yl]-3-oxa-6-azabicyclo[3.1.1]heptane], the IC50 on recombinant human MER and on recombinant human TYRO3 was > 1 µM in each case.

With `FC(F)c1cccnc1-c1ccc(-c2n[nH]c3ncc(-c4ccc5c(c4)CC[C@@H](N4C6COCC4C6)CC5)cc23)cc1` [Example 89, 6-[(7S)-3-[3-[4-[3-(Difluoromethyl)pyridin-2-yl]phenyl]-1H-pyrazolo[3,4-b]pyridin-5-yl]-6,7,8,9-tetrahydro-5H-benzo[7]annulen-7-yl]-3-oxa-6-azabicyclo[3.1.1]heptane], the 50% inhibitory concentration (IC50) at recombinant human MER and on recombinant human TYRO3 was 0.1 to 1 µM in each case.

As to `C[C@@H]1CCCN1[C@@]1(C)CCc2ccc(-c3cnc4[nH]nc(-c5ccc(-c6nccs6)cc5)c4c3)cc2CC1` [Example 91, 2-(4-{5-[(7S)-7-Methyl-7-[(2R)-2-methylpyrrolidin-1-yl]-6,7,8,9-tetrahydro-5H-benzo[7]annulen-2-yl]-2H-pyrazolo[3,4-b]pyridin-3-yl}phenyl)-1,3-thiazole], the IC50 on recombinant human MER and at recombinant human TYRO3 was 0.1 to 1 µM in each case.

`c1cc(-n2cc(-c3c[nH]c4ncc(-c5ccc6c(c5)CC[C@@H](N5C7COCC5C7)CC6)cc34)cn2)ccn1` [Example 45, 6-[(7S)-2-{3-[1-(Pyridin-4-yl)-1H-pyrazol-4-yl]-1H-pyrrolo[2,3-b]pyridin-5-yl}-6,7,8,9-tetrahydro-5H-benzo[7]annulen-7-yl]-3-oxa-6-azabicyclo[3.1.1]heptane]: the half-inhibitory concentration (IC50) at recombinant human MER and at recombinant human TYRO3 was > 1 µM each time.

For the compound `Cc1cncnc1-c1ccc(-c2c[nH]c3ncc(-c4ccc5c(c4)CC[C@@H](N4C6COCC4C6)CC5)cc23)cc1` [Example 47, 6-[(7S)-2-{3-[4-(5-Methylpyrimidin-4-yl)phenyl]-1H-pyrrolo[2,3-b]pyridin-5-yl}-6,7,8,9-tetrahydro-5H-benzo[7]annulen-7-yl]-3-oxa-6-azabicyclo[3.1.1]heptane], the IC50 on recombinant human MER and at recombinant human TYRO3 was < 0.1 µM in each case.

As to `Cc1cnc(-c2ccc(-c3c[nH]c4ncc(-c5ccc6c(c5)CC[C@@](C)(N5CCC[C@H]5C)CC6)cc34)cc2)c(C)n1` [Example 57, 3,5-Dimethyl-2-(4-{5-[(7S)-7-methyl-7-[(2R)-2-methylpyrrolidin-1-yl]-6,7,8,9-tetrahydro-5H-benzo[7]annulen-2-yl]-1H-pyrrolo[2,3-b]pyridin-3-yl}phenyl)pyrazine], the half-inhibitory concentration (IC50) at recombinant human MER and at recombinant human TYRO3 was 0.1 to 1 µM each time.

For the compound `Cc1cnc(-c2ccc(-c3c[nH]c4ncc(-c5ccc6c(c5)CC[C@@H](N5C7COCC5C7)CC6)cc34)cc2)c(C)n1` [Example 50, 6-[(7S)-2-{3-[4-(3,5-Dimethylpyrazin-2-yl)phenyl]-1H-pyrrolo[2,3-b]pyridin-5-yl}-6,7,8,9-tetrahydro-5H-benzo[7]annulen-7-yl]-3-oxa-6-azabicyclo[3.1.1]heptane], the IC50 at recombinant human MER and on recombinant human TYRO3 was 0.1 to 1 µM throughout.

As to `c1cncc(-c2ccc(-c3n[nH]c4ncc(-c5ccc6c(c5)CC[C@@H](N5C7COCC5C7)CC6)cc34)cc2)c1` [Example 157, 6-[(7S)-2-{3-[4-(Pyridin-3-yl)phenyl]-2H-pyrazolo[3,4-b]pyridin-5-yl}-6,7,8,9-tetrahydro-5H-benzo[7]annulen-7-yl]-3-oxa-6-azabicyclo[3.1.1]heptane], the half-maximal inhibitory concentration (IC50) at recombinant human MER and at recombinant human TYRO3 was > 1 µM throughout.

Consider `Cc1cccnc1-c1ccc(-c2n[nH]c3ncc(-c4ccc5c(c4)CC[C@@H](N4C6COCC4C6)CC5)cc23)cc1` [Example 2, 6-[(7S)-2-{3-[4-(3-Methylpyridin-2-yl)phenyl]-2H-pyrazolo[3,4-b]pyridin-5-yl}-6,7,8,9-tetrahydro-5H-benzo[7]annulen-7-yl]-3-oxa-6-azabicyclo[3.1.1]heptane], for which the half-inhibitory concentration (IC50) on recombinant human MER was 0.1 to 1 µM; at recombinant human TYRO3, < 0.1 µM.

For `c1cc(-c2ccc(-c3c[nH]c4ncc(-c5ccc6c(c5)CC[C@@H](N5C7COCC5C7)CC6)cc34)cc2)ccn1` [Example 41, 6-[(7S)-2-{3-[4-(Pyridin-4-yl)phenyl]-1H-pyrrolo[2,3-b]pyridin-5-yl}-6,7,8,9-tetrahydro-5H-benzo[7]annulen-7-yl]-3-oxa-6-azabicyclo[3.1.1]heptane], the 50% inhibitory concentration (IC50) on recombinant human MER is 0.1 to 1 µM; at recombinant human TYRO3, > 1 µM.

In the case of `COc1ccnc(-c2ccc(-c3n[nH]c4ncc(-c5ccc6c(c5)CC[C@@H](N5C7COCC5C7)CC6)cc34)cc2)c1C` [Example 87, 6-[(7S)-3-[3-[4-(4-Methoxy-3-methylpyridin-2-yl)phenyl]-1H-pyrazolo[3,4-b]pyridin-5-yl]-6,7,8,9-tetrahydro-5H-benzo[7]annulen-7-yl]-3-oxa-6-azabicyclo[3.1.1]heptane], the concentration for half-maximal inhibition (IC50) at recombinant human MER and on recombinant human TYRO3 was 0.1 to 1 µM in each case.

In the case of `Clc1cc(-c2c[nH]c3ncc(-c4ccc5c(c4)CC[C@@H](N4C6COCC4C6)CC5)cc23)ccc1-c1ccccn1` [Example 44, 6-[(7S)-2-{3-[3-Chloro-4-(pyridin-2-yl)phenyl]-1H-pyrrolo[2,3-b]pyridin-5-yl}-6,7,8,9-tetrahydro-5H-benzo[7]annulen-7-yl]-3-oxa-6-azabicyclo[3.1.1]heptane], the IC50 on recombinant human MER and at recombinant human TYRO3 was 0.1 to 1 µM throughout.

For the compound `COCCOc1cccnc1-c1ccc(-c2c[nH]c3ncc(-c4ccc5c(c4)CC[C@@H](N4C6COCC4C6)CC5)cc23)cc1` [Example 3, 6-[(7S)-2-(3-{4-[3-(2-Methoxyethoxy)pyridin-2-yl]phenyl}-1H-pyrrolo[2,3-b]pyridin-5-yl)-6,7,8,9-tetrahydro-5H-benzo[7]annulen-7-yl]-3-oxa-6-azabicyclo[3.1.1]heptane], the 50% inhibitory concentration (IC50) at recombinant human MER and on recombinant human TYRO3 was < 0.1 µM in each case.
